In US12281118B2, “Nitrogen-containing fused heterocyclic SHP2 inhibitor compound, preparation method, and use” (SHANGHAI RINGENE BIOPHARMA CO., LTD., priority 2018, dated 2025):
Where two headings read alike, the source gives them in different places.

What was measured:
SHP2 enzyme = SHP2 enzyme (Homo sapiens (Human), UniProt Q06124); assay: Inhibitory activity against SHP2 enzyme (Caliper conversion rate); type: biochemical; settings: read-out: SHP2 Enzyme Inhibition IC50 Value
Description: (1) Preparing 1×Reaction Buffer according to the BPS Biosciences' Instructions for Use of the SHP2 enzyme. (2) Preparing a compound concentration gradient: Test the test compound at 10 μM under 3× dilution for 10 concentrations, diluting to a 100% dimethyl sulfoxide solution at a 100× final concentration in a 384-well plate, and diluting the compound with Precision 4× for 10 concentrations. Transferring 250 nL of the compound at the 100× final concentration to a target plate OptiPlate-384F using a dispenser Echo 550. […] (3) Preparing the activation peptide solution at a 5× final concentration with the 1×Reaction Buffer, adding 5 μL of the solution to a reaction plate, respectively, and centrifuging at 1000 rpm for 1 min. (4) Preparing an enzyme solution at a 2.5× final concentration with the 1×Reaction Buffer, adding 10 μL of the solution to the reaction plate, respectively, centrifuging at 1000 rpm for 1 min, and incubating at room temperature for 60 min. (5) Preparing a substrate peptide solution at a 2.5× final concentration with the 1×Reaction Buffer, centrifuging at 1000 rpm for 1 min, and incubating at room temperature for 30 min. (6) Adding 30 μL of stop test solution to stop the reaction, centrifuging at 1000 rpm for […], and mixing well by shaking. (7) Reading the conversion rate with a Caliper EZ Reader. (7) Data analysis:
Wherein: Conversion %/_sample is the reading of a conversion rate of a sample; Conversion %_min: mean of negative control wells, which represents the reading of a conversion rate in absence of enzyme activity wells; Conversion %_max: mean of a ratio of positive control wells, which represents the reading of a conversion rate in absence of compound inhibition wells.

MV4-11 leukemia cells = assay: Inhibition of proliferation of MV4-11 leukemia cells (CellTiter-Glo, 72 h); type: cell-based; settings: read-out: IC50 value, MV4-11 cell proliferation
Description: Specific experimental procedures: 1) At Day 0: Inoculating trypsin-digested cells in 96-well plate and suspending the plate in cell culture medium; measure cell density using an automatic cell counter, diluting the cells with the culture medium to appropriate density, adding 100 μl of cell suspension in the 96-well plate, and incubating a cell-free medium as a control well in a cell incubator with […] at 37° C. overnight; 2) Day 1: Treating test compounds of the cells using a drug for a total of 8 concentrations, and diluting at a 3× concentration, wherein 10 μM is a starting test concentration of the test compounds. […] IC50 values are obtained by a four-parameter regression using software attached to the plate reader (the specific results are shown in Table 2).

[1] = Homo sapiens, MV4-11, 72 h, in uM

SMILES	IC50 (SHP2 enzyme) [nM]	IC50 (MV4-11 leukemia cells; Homo sapiens, MV4-11, 72 h) [µM]	IC50 (MV4-11 leukemia cells; [1]) [µM]	IC50 (MV4-11 leukemia cells; 72 h) [µM]
Cc1cc(N2CCC3(CC2)Cc2ccccc2[C@H]3N)n2ncnc2c1Sc1ccnc(N)c1Cl [Example 19, (S)-1′-(8-((2-amino-3-chloropyridin-4-yl)thio)-7-methyl-[1,2,4]triazolo [1,5-a]pyridin-5-yl)-1,3-dihydrospiro [indene-2,4′-piperidine]-1-amine]	29.5	0.687		
Cc1nc(N2CCC(C)(N)CC2)n2ccnc2c1-c1cccc(Cl)c1Cl [Comparative Compound 1, 1-(8-(2,3-dichlorophenyl)-7-methylimidazo [1,2-c]pyrimidin-5-yl)-4-methylpiperidin-4-amine, reference compound]	141	1.41		
Cc1nc(N2CCC3(CC2)Cc2ccccc2[C@H]3N)n2ccnc2c1-c1ccnc(N)c1Cl [Example 15, (S)-1′-(8-(2-amino-3-chloropyridin-4-yl)-7-methylimidazo [1,2-c]pyrimidin-5-yl)-1,3-dihydrospiro [indene-2,4′-piperidine]-1-amine]	12.1	0.135		
CC1(N)CCN(c2nc(N)c(-c3cccc(Cl)c3Cl)c3nccn23)CC1 [Example 27, 5-(4-amino-4-methylpiperidin-1-yl)-8-(2,3-dichlorophenyl) imidazole [1,2-c] pyrimidin-7-amine]	287			2.55
Cc1nc(N2CCC(C)(N)CC2)n2ccnc2c1Sc1cccc(Cl)c1Cl [Example 25, 1-(8 ((2,3-dichlorophenyl)sulfanyl)-7-methylimidazole [1,2-c]pyrimidin-5-yl)-4-methylpiperidin-4-amine]		1.36		
Cc1cc(N2CCC(C)(N)CC2)n2ccnc2c1-c1cccc(Cl)c1Cl [Example 24, 1-(8-(2,3-dichlorophenyl)-7-methylimidazolo [1,2-a]pyridin-5-yl)-4-methylpiperidin-4-amine]	706		5.4	
Cc1nc(N2CCC(C)(N)CC2)n2cnnc2c1-c1cccc(Cl)c1Cl [Example 22, 1-(8-(2,3-dichlorophenyl)-7-methyl-[1,2,4]triazole [4,3-c]pyrimidin-5-yl)-4-methylpiperidin-4-amine]			> 10	
Cc1nc(N2CCC3(CCC[C@H]3N)CC2)n2ccnc2c1Sc1ccnc(N)c1Cl [Example 26, (R)-8-(8-((2-amino-3-chloropyridin-4-yl)thio)-7-methylimidazole [1,2-c]pyrimidin-5-yl)-8-azaspiro [4.5] quin-1-amine]	6.1	0.147		
Cc1nc(N2CCC(C)(N)CC2)n2ncnc2c1-c1cccc(Cl)c1Cl [Example 21, 1-(8-(2,3-dichlorophenyl)-7-methyl-[1,2,4]triazole [1,5-c]pyrimidin-5-yl)-4-methylpiperidin-4-amine]			> 10	
CC1(N)CCN(c2nc(CF)c(-c3cccc(Cl)c3Cl)c3nccn23)CC1 [Example 28, 1-(8-(2,3-dichlorophenyl)-7-(fluoromethylene)imidazole [1,2-c]pyrimidin-5-yl)-4-methylpiperidin-4-amine]		2.01		
Cc1cc(N2CCC3(CC2)Cc2ccccc2[C@H]3N)n2cnnc2c1Sc1ccnc(N)c1Cl [Example 18, (S)-1′-(8-((2-amino-3-chloropyridin-4-yl)thio)-7-methyl-[1,2,4]triazolo [4,3-a]pyridin-5-yl)-1,3-dihydrospiro [indene-2,4′-piperidine]-1-amine]	24.6	0.86		
Cc1cc(N2CCC(C)(N)CC2)n2cnnc2c1-c1cccc(Cl)c1Cl [Example 23, 1-(8-(2,3-dichlorophenyl)-7-methyl-[1,2,4]triazole [4,3-a]pyridin-5-yl)-4-methylpiperidin-4-amine]			> 10	
CC1(N)CCN(c2ncc(-c3cccc(Cl)c3Cl)c3nccn23)CC1 [Comparative Compound 2, 1-(8-(2,3-dichlorophenyl)imidazo [1,2-c]pyrimidin-5-yl)-4-methylpiperidin-4-amine, reference compound]	3460	> 10		

Now from value to compound, other results behind:

IC50 (SHP2 enzyme) [nM]	IC50 (MV4-11 leukemia cells; Homo sapiens, MV4-11, 72 h) [µM]	IC50 (MV4-11 leukemia cells; [1]) [µM]	SMILES	IC50 (MV4-11 leukemia cells; 72 h) [µM]
9.5	0.108		Cc1nc(N2CCC3(CC2)Cc2ccccc2[C@H]3N)n2ccnc2c1-c1cccnc1C(F)(F)F [Example 16, (S)-1′-(7-methyl-8-(2-(trifluoromethyl)pyridin-3-yl)imidazo [1,2-c]pyrimidin-5-yl)-1,3-dihydrospiro [indene-2,4′-piperidine]-1-amine]	
0.8	< 0.0015		Nc1nc(N2CCC3(CC2)Cc2ccccc2[C@H]3N)n2ccnc2c1Sc1cccnc1C(F)(F)F [Example 5]	
2.1	0.0093		COc1ccc2c(c1)[C@@H](N)C1(CCN(c3nc(C)c(Sc4ccnc(N)c4Cl)c4nccn34)CC1)C2 [Example 7, (S)-1′-(8-((2-amino-3-chloropyridin-4-yl)thio)-7-methylimidazo [1,2-c]pyrimidin-5-yl)-6-methoxy-1,3-dihydrospiro [indene-2,4′-piperidine]-1-amine]	
2.9	0.0247		Nc1nccc(Sc2c(CF)nc(N3CCC4(CC3)Cc3ccccc3[C@H]4N)n3ccnc23)c1Cl [Example 12, (S)-1′-(8-((2-amino-3-chloropyridin-4-yl)thio)-7-(fluoromethyl)imidazo [1,2-c]pyrimidin-5-yl)-1,3-dihydrospiro [indene-2,4′-piperidine]-1-amine]	
1.3	0.0087		Cc1nc(N2CCC3(CC2)Cc2ncccc2[C@H]3N)n2ccnc2c1Sc1ccnc(N)c1Cl [Example 6, (S)-1′-(8-((2-amino-3-chloropyridin-4-yl)thio)-7-methylimidazo [1,2-c]pyrimidin-5-yl)-5,7-dihydrospiro [cyclopentano [b]pyridine-6,4′-piperidine]-5-amine]	
1.8	0.0392		Cc1nc(N2CCC3(CC2)Oc2ccccc2[C@H]3N)n2ccnc2c1Sc1ccnc(N)c1Cl [Example 13, (R)-1′-(8-((2-amino-3-chloropyridin-4-yl)thio)-7-methylimidazo [1,2-c]pyrimidin-5-yl)-3H-spiro [benzofuran-2,4′-piperidine]-3-amine]	
3.8	0.0094		Cc1nc(N2CCC3(CC2)Cc2ccccc2C3N)n2ccnc2c1Sc1ccnc(N)c1Cl (centres unmarked) [Example 20, 1′-(8-((2-amino-3-chloropyridin-4-yl)thio)-7-methylimidazo [1,2-c]pyrimidin-5-yl)-1,3-dihydrospiro [indene-2,4′-piperidine]-1-amine]	
3.7	0.012		Cc1nc(N2CCC3(CC2)Cc2cc(F)c(F)cc2[C@H]3N)n2ccnc2c1Sc1ccnc(N)c1Cl [Example 8, (S)-1′-(8-((2-amino-3-chloropyridin-4-yl)thio)-7-methylimidazo [1,2-c]pyrimidin-5-yl)-5,6-difluoro-1,3-dihydrospiro [indene-2,4′-piperidine]-1-amine]	
3.1	0.0184		Cc1nc(N2CCC3(CC2)Cc2ncsc2[C@H]3N)n2ccnc2c1Sc1ccnc(N)c1Cl [Example 14, (S)-1′-(8-((2-amino-3-chloropyridin-4-yl)thio)-7-methylimidazo [1,2-c]pyrimidin-5-yl)-4,6-dihydrospiro [cyclopentano [d]thiazol-5,4′-piperidine]-6-amine]	
9.1	0.048		Cc1cc(N2CCC3(CC2)Cc2ccccc2[C@H]3N)n2ccnc2c1Sc1ccnc(N)c1Cl [Example 17, (S)-1′-(8-((2-amino-3-chloropyridin-4-yl)thio)-7-methylimidazo [1,2-a]pyridin-5-yl)-1,3-dihydrospiro [indene-2,4′-piperidine]-1-amine]	
	0.0313		Cc1nc(N2CCC3(CC2)Cc2ccccc2[C@H]3N)n2ccnc2c1Sc1cccnc1C(F)(F)F [Example 2]	
1	0.0028		Cc1nc(N2CCC3(CC2)Cc2ccccc2[C@H]3N)n2ccnc2c1Sc1ccnc(NC2CC2)c1Cl [Example 3, (S)-1′-(8-((3-chloro-2-(cyclopropylamino)pyridin-4-yl)thio)-7-methylimidazo [1,2-c]pyrimidin-5-yl)-1,3-dihydrospiro [indene-2,4′-piperidine]-1-amine]	
